The source of these data is US7589097B2, “Triazol[4,5-d] pyramidine derivatives and their use as purinergic receptor antagonists” (Vernalis Research Limited, priority 2001, dated 2009).

One may read the melting point as the temperature, or range, at which the solid turns liquid.

Where a name gives a salt, the structure may show the parent alone.

As for `CC(=O)Nc1ccc(Cn2nnc3c(-c4ccco4)nc(N)nc32)cc1` [Example 193, N-(4-(5-amino-7-(2-furyl)-3H-[1,2,3]triazolo[4,5-d]pyrimidin-3-ylmethyl)phenyl)acetamide], the melting point was in the range of 253.6 to 254 °C.

Take `Cc1ccnc(Cn2nnc3c(-c4ccco4)nc(N)nc32)c1` [Example 131, 7-(2-furyl)-3-(4-methyl-2-pyridylmethyl)-3H-[1,2,3]triazolo[4,5-d]pyrimidine-5-amine]: the melting point lay within 225.7 to 225.8 °C.

In turn, `Nc1nc(-c2ccco2)c2nnn(Cc3cccc(F)n3)c2n1` [Example 71, 3-(6-fluoro-2-pyridylmethyl)-7-(2-furyl)-3H-[1,2,3]triazolo[4,5-d]pyrimidine-5-amine] had a melting point of 228.7 to 228.9 °C.

Take `Nc1nc(-c2ccco2)c2nnn(CC(=O)Nc3ccccn3)c2n1` [Example 52, (5-amino-7-(2-furyl)-3H-[1,2,3]triazolo[4,5-d]pyrimidin-3-yl)-N-(2-pyridyl)acetamide]: the melting point is 263.8 to 264 °C.

For the compound `NCc1ccccc1Cn1nnc2c(-c3ccco3)nc(N)nc21` [Example 161, 3-(2-aminomethylbenzyl)-7-(2-furyl)-3H-[1,2,3]triazolo[4,5-d]pyrimidine-5-amine], the melting point is > 250 °C (dec.).

Turning to `N#CCc1cccc(Cn2nnc3c(-c4ccco4)nc(N)nc32)n1` [Example 220, 3-(6-Cyanomethyl-2-pyridylmethyl)-7-(2-furyl)-3H-[1,2,3]triazolo[4,5-d]pyrimidine-5-amine], the melting point was 223.3 to 223.4 °C.

On to `Nc1nc(-c2cncs2)c2nnn(Cc3cccc([N+](=O)[O-])c3)c2n1` [Example 45, 3-(3-nitrobenzyl)-7-(5-thiazolyl)-3H-[1,2,3]triazolo[4,5-d]pyrimidine-5-amine], for which the melting point fell in the range of 190.4 to 190.8 °C.

As for `Nc1nc(-c2ccco2)c2nnn(Cc3ccc(F)c(N)c3)c2n1` [Example 165, 3-(3-amino-4-fluorobenzyl)-7-(2-furyl)-3H-[1,2,3]triazolo[4,5-d]pyrimidine-5-amine], the melting point fell in the range of 259.7 to 259.8 °C.

Compound `Nc1nc(-c2ccco2)c2nnn(Cc3cc(F)cc(F)c3F)c2n1` [Example 168, 7-(2-furyl)-3-(2,3,5-trifluorobenzyl)-3H-[1,2,3]triazolo[4,5-d]pyrimidine-5-amine] gave a melting point of 204 to 204.2 °C.

`Nc1nc(-c2ccco2)c2nnn(Cc3cc(F)ccc3[N+](=O)[O-])c2n1` [Example 155, 3-(5-fluoro-2-nitrobenzyl)-7-(2-furyl)-3H-[1,2,3]triazolo[4,5-d]pyrimidine-5-amine] came in with a melting point of 258.6 to 258.7 °C.

`CC(C)(C)OC(=O)n1cc(Cn2nnc3c(-c4ccco4)nc(N)nc32)c2ccccc21` [Example 204, tert-butyl 3-(5-amino-7-(2-furyl)-3H-[1,2,3]triazolo[4,5-d]pyrimidine-3-ylmethyl)indole-1-carboxylate]: the melting point was 143.6 to 144.5 °C.

For the compound `CC(C)c1cccc(Cn2nnc3c(-c4ccco4)nc(N)nc32)n1` [Example 197, 7-(2-furyl)-3-(6-isopropyl-2-pyridylmethyl)-3H-[1,2,3]triazolo[4,5-d]pyrimidine-5-amine], the melting point is 188.3 to 188.5 °C.

`Nc1nc(-c2ccco2)c2nnn(Cc3ccccn3)c2n1` [Example 24, 7-(2-Furyl)-3-(2-pyridylmethyl)-3H-[1,2,3]triazolo[4,5-d]pyrimidine-5-amine]: the melting point fell in the range of 196.9 to 197.1 °C.

Consider `CNC(=O)c1cccc(Cn2nnc3c(-c4ccc(C)o4)nc(N)nc32)c1` [Example 67, 3-(5-amino-7-(5-methyl-2-furyl)-3H-[1,2,3]triazolo[4,5-d]pyrimidin-3-ylmethyl)-N-methylbenzamide], for which the melting point was 252.9 to 253 °C.

With `COc1cccc(Cn2nnc3c(-c4ccco4)nc(N)nc32)n1` [Example 32, 7-(2-furyl)-3-(6-methoxy-2-pyridylmethyl)-3H-[1,2,3]triazolo[4,5-d]pyrimidine-5-amine], the melting point was 191.4 to 192 °C.

With `Nc1nc(-c2ccco2)c2nnn(Cc3ccc4nonc4c3)c2n1` [Example 111], the melting point was 244.1 to 244.6 °C.

`Nc1nc(-c2ccco2)c2nnn(Cc3csc(-c4ccccc4)n3)c2n1` [Example 108, 7-(2-furyl)-3-(2-phenylthiazol-4-ylmethyl)-3H-[1,2,3]triazolo[4,5-d]pyrimidine-5-amine] came in with a melting point of 215 to 215.3 °C.

In turn, `CCOc1cccc(Cn2nnc3c(-c4ccco4)nc(N)nc32)n1` [Example 253, 3-(6-ethoxy-2-pyridylmethyl)-7-(2-furyl)-3H-[1,2,3]triazolo[4,5-d]pyrimidine-5-amine] returned a melting point of 181.8 to 182.1 °C.

On to `CNCc1cccc(Cn2nnc3c(-c4ccco4)nc(N)nc32)n1` (as salt: hydrochloride) [Example 226, 7-(2-Furyl)-3-(6-(N-methylamino)methyl-2-pyridylmethyl)-3H-[1,2,3]triazolo[4,5-d]pyrimidine-5-amine], for which the melting point fell in the range of 221.4 to 221.5 °C.

`CN(Cc1cccc(Cn2nnc3c(-c4ccco4)nc(N)nc32)n1)S(C)(=O)=O` [Example 239, N-(6-(5-amino-7-(2-furyl)-3H-[1,2,3]triazolo[4,5-d]pyrimidin-3-ylmethyl)-2-pyridylmethyl)-N-methyl methanesulphonamide] displayed a melting point of 205.8 to 206 °C.

`Cc1cc(Cn2nnc3c(-c4ccco4)nc(N)nc32)cc(C)c1N` [Example 262, 3-(4-amino-3,5-dimethylbenzyl)-7-(2-furyl)-3H-[1,2,3]triazolo[4,5-d]pyrimidine-5-amine] yielded a melting point of 250.1 to 261.3 °C.

`C=CCOCc1cccc(Cn2nnc3c(-c4ccco4)nc(N(CC=C)CC=C)nc32)n1` [Example 182, 3-(6-Allyloxymethyl-2-pyridylmethyl)-N,N-diallyl-7-(2-furyl)-3H-[1,2,3]triazolo[4,5-d]pyrimidine-5-amine] yielded a melting point of 92.3 to 92.7 °C.

Compound `CSCc1cccc(Cn2nnc3c(-c4ccco4)nc(N)nc32)n1` [Example 234, 7-(2-furyl)-3-(6-methylthiomethyl-2-pyridylmethyl)-3H-[1,2,3]triazolo[4,5-d]pyrimidine-5-amine] had a melting point of 168.3 to 168.5 °C.

For the compound `Nc1nc(-c2ccco2)c2nnn(CC(=O)c3ccccc3)c2n1` [Example 211, 2-(5-Amino-7-(2-furyl)-3H-[1,2,3]triazolo[4,5-d]pyrimidin-3-yl)-1-phenylethanone], the melting point is 257.1 to 257.3 °C.

`CC(c1cccc(F)c1)n1nnc2c(-c3ccco3)nc(N)nc21` (centres unmarked) [Example 260, 3-(1-(3-fluorophenyl)ethyl)-7-(2-furyl)-3H-[1,2,3]triazolo[4,5-d]pyrimidine-5-amine] registered a melting point of 150.3 to 151 °C.

Turning to `Nc1cccc(Cn2nnc3c(-c4cncs4)nc(N)nc32)c1` [Example 50, 3-(3-aminobenzyl)-7-(5-thiazolyl)-3H-[1,2,3]triazolo[4,5-d]pyrimidine-5-amine], the melting point lay in the range of 228.2 to 228.3 °C.

In turn, `Cc1cccc(Cn2nnc3c(-c4ccco4)nc(N)nc32)c1` [Example 23, 7-(2-furyl)-3-(3-methylbenzyl)-3H-[1,2,3]triazolo[4,5-d]pyrimidine-5-amine] had a melting point of 187.3 to 187.7 °C.

Compound `CC(C)c1cc(Cn2nnc3c(-c4ccco4)nc(N)nc32)ccc1[N+](=O)[O-]` [Example 187, 7-(2-furyl)-3-(3-isopropyl-4-nitrobenzyl)-3H-[1,2,3]triazolo[4,5-d]pyrimidine-5-amine] came in with a melting point of 191.7 to 191.9 °C.

As to `Cc1ccc(-c2nc(N)nc3c2nnn3Cc2cccc(Cl)n2)o1` [Example 81, 3-(6-chloro-2-pyridylmethyl)-7-(5-methyl-2-furyl)-3H-[1,2,3]triazolo[4,5-d]pyrimidine-5-amine], the melting point lay within 229.3 to 229.4 °C.

For `Cc1ccc(-c2nc(N)nc3[nH]nnc23)o1` [Example 19, 7-(5-Methyl-2-furyl)-1H-[1,2,3]triazolo[4,5-d]pyrimidine-5-amine], the melting point fell in the range of 291.8 to 292 °C.

The compound `CCCc1cccc(Cn2nnc3c(-c4ccco4)nc(N)nc32)n1` [Example 216, 7-(2-furyl)-3-(6-n-propyl-2-pyridylmethyl)-3H-[1,2,3]triazolo[4,5-d]pyrimidine-5-amine] gave a melting point of 178.3 to 178.5 °C.

In turn, `CS(=O)(=O)Cc1cccc(Cn2nnc3c(-c4ccco4)nc(N)nc32)n1` [Example 238, 7-(2-furyl)-3-(6-methylsulphonylmethyl-2-pyridylmethyl)-3H-[1,2,3]triazolo[4,5-d]pyrimidine-5-amine] displayed a melting point of 238.2 to 238.6 °C.

Consider `COc1cc(Cn2nnc3c(-c4ccco4)nc(N)nc32)ccc1[N+](=O)[O-]` [Example 133, 7-(2-furyl)-3-(3-methoxy-4-nitrobenzyl)-3H [1,2,3]triazolo[4,5-d]pyrimidine-5-amine], for which the melting point is 209.7 to 209.9 °C.

The compound `CC(C)COCc1cccc(Cn2nnc3c(-c4ccco4)nc(N)nc32)n1` [Example 217, 7-(2-furyl)-3-(6-isobutyloxymethyl-2-pyridylmethyl)-3H-[1,2,3]triazolo[4,5-d]pyrimidine-5-amine] showed a melting point of 146.7 to 149.3 °C.

Compound `Nc1nc(-c2ccco2)c2nnn(Cc3cccs3)c2n1` [Example 33, 7-(2-furyl)-3-(2-thienylmethyl)-3H-[1,2,3]triazolo[4,5-d]pyrimidine-5-amine] returned a melting point of 204.1 to 204.2 °C.

Turning to `Nc1nc(-c2ccco2)c2nnn(Cc3cccc(CBr)n3)c2n1` [Example 218, 3-(6-bromomethyl-2-pyridylmethyl)-7-(2-furyl)-3H-[1,2,3]triazolo[4,5-d]pyrimidine-5-amine], the melting point is 196 to 196.1 °C.

For `Cc1c(Cn2nnc3c(-c4ccco4)nc(N)nc32)cccc1[N+](=O)[O-]` [Example 88, 7-(2-furyl)-3-(2-methyl-3-nitrobenzyl)-3H-[1,2,3]triazolo[4,5-d]pyrimidine-5-amine], the melting point is 258.8 to 259 °C.

Compound `CC(=O)Nc1cccc(Cn2nnc3c(-c4ccco4)nc(N)nc32)c1` [Example 160] returned a melting point of 277.4 to 277.9 °C.
